Test results taken from patent US6362369B1, “Phthalic acid diamide derivatives fluorine-containing aniline compounds as starting material, agricultural and horticultural insecticides, and a method for application of the insecticides” (Nihon Nohyaku Co., Ltd., priority 1997, dated 2002).

Columns and labels:
Format in all cases: in vivo
[1] = system: rice leafroller (Cnaphalocrocis medinalis); assay: Insecticidal effect on rice leafroller (Test Example 3); details: 500 ppm; rice lamina immersed; third-instar larvae of rice leafroller; four days after inoculation; 25° C., humidity 70%
In short: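 Groups of 10 third-instar larvae, in triplicate, are placed on air-dried lamina resting on wet filter paper. Incubation runs four days at 25° C with 70% humidity before survivors and dead are tallied.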

[2] = system: common cutworm (Spodoptera Litura); assay: Insecticidal effect on common cutworm (Test Example 2); details: 500 ppm; cabbage leaf immersed; second-instar larvae of common cutworm; eight days after inoculation; 25° C.
In short: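 Air-dried treated material was placed in a closed dish with second-instar larvae and held at 25° C. Dead and live insects were counted eight days after inoculation, and mortality was calculated and scored against a fixed insecticidal-effect criterion. Three replicate groups of 10 insects were used.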

[3] = system: diamondback moth (Plutella xylostella); assay: Insecticidal effect on diamondback moth (Test Example 1); details: diamondback moth; judged by the mortality criterion of Test Example 1
In short: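 Eggs laid by adult moths on Chinese cabbage seedlings, which were immersed in test solution, air-dried and kept at 25 °C. Hatched insects counted 6 days after immersion and mortality calculated, with effect graded by criterion; triplicate groups of 10 insects.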

SMILES: Cc1cc(C(F)(F)C(F)(F)F)ccc1NC(=O)c1ccccc1C(=O)NC(C)C [compound 55]
- Insecticidal effect, Test Example 3 [1]: A (100)
- Insecticidal effect, Test Example 2 [2]: B (99-90)
- Insecticidal effect, Test Example 1 [3]: A (100)

SMILES: Cc1cc(C(F)(F)C(F)(F)C(F)(F)F)ccc1NC(=O)c1ccccc1C(=O)NC(C)C [compound 56]
- Insecticidal effect, Test Example 3 [1]: A (100)
- Insecticidal effect, Test Example 2 [2]: A (100)
- Insecticidal effect, Test Example 1 [3]: A (100)

SMILES: Cc1cc(OC(F)F)ccc1NC(=O)c1ccccc1C(=O)NC(C)C [compound 58]
- Insecticidal effect, Test Example 3 [1]: A (100)
- Insecticidal effect, Test Example 2 [2]: A (100)
- Insecticidal effect, Test Example 1 [3]: A (100)

SMILES: Cc1cc(OC(F)(F)C(F)F)ccc1NC(=O)c1ccccc1C(=O)NC(C)C [compound 60]
- Insecticidal effect, Test Example 3 [1]: A (100)
- Insecticidal effect, Test Example 2 [2]: A (100)
- Insecticidal effect, Test Example 1 [3]: A (100)

SMILES: Cc1c(NC(=O)c2ccccc2C(=O)NC(C)C)cccc1OC(F)(F)C(F)Cl (stereo not drawn) [compound 61]
- Insecticidal effect, Test Example 3 [1]: A (100)
- Insecticidal effect, Test Example 2 [2]: B (99-90)
- Insecticidal effect, Test Example 1 [3]: A (100)

SMILES: Cc1cc(OC(F)(F)C(F)Cl)ccc1NC(=O)c1ccccc1C(=O)NC(C)C (stereo not drawn) [compound 62]
- Insecticidal effect, Test Example 3 [1]: A (100)
- Insecticidal effect, Test Example 2 [2]: A (100)
- Insecticidal effect, Test Example 1 [3]: A (100)

SMILES: Cc1cc(C(F)(F)C(F)(F)Br)ccc1NC(=O)c1ccccc1C(=O)NC(C)C [compound 63]
- Insecticidal effect, Test Example 3 [1]: A (100)
- Insecticidal effect, Test Example 2 [2]: B (99-90)
- Insecticidal effect, Test Example 1 [3]: A (100)

SMILES: Cc1cc(C(F)(F)C(F)(Cl)Cl)ccc1NC(=O)c1ccccc1C(=O)NC(C)C [compound 64]
- Insecticidal effect, Test Example 3 [1]: A (100)
- Insecticidal effect, Test Example 2 [2]: B (99-90)
- Insecticidal effect, Test Example 1 [3]: A (100)

SMILES: Cc1cc(OC(F)(F)C(F)C(F)(F)F)ccc1NC(=O)c1ccccc1C(=O)NC(C)C (stereo not drawn) [compound 65]
- Insecticidal effect, Test Example 3 [1]: A (100)
- Insecticidal effect, Test Example 2 [2]: A (100)
- Insecticidal effect, Test Example 1 [3]: A (100)

SMILES: Cc1cc(OC(F)(F)C(F)(Br)C(F)(F)F)ccc1NC(=O)c1ccccc1C(=O)NC(C)C (stereo not drawn) [compound 66]
- Insecticidal effect, Test Example 3 [1]: B (99-90)
- Insecticidal effect, Test Example 2 [2]: A (100)
- Insecticidal effect, Test Example 1 [3]: A (100)

SMILES: Cc1cc(OC(F)(F)C(F)OC(F)(F)F)ccc1NC(=O)c1ccccc1C(=O)NC(C)C (stereo not drawn) [compound 67]
- Insecticidal effect, Test Example 3 [1]: A (100)
- Insecticidal effect, Test Example 2 [2]: A (100)
- Insecticidal effect, Test Example 1 [3]: A (100)

SMILES: Cc1cc(Sc2ccc(Cl)cc2)ccc1NC(=O)c1ccccc1C(=O)NC(C)C [compound 77]
- Insecticidal effect, Test Example 3 [1]: A (100)
- Insecticidal effect, Test Example 2 [2]: C (89-80)
- Insecticidal effect, Test Example 1 [3]: A (100)

SMILES: Cc1cc(Oc2ccc(C(F)(F)F)cn2)ccc1NC(=O)c1ccccc1C(=O)NC(C)C [compound 78]
- Insecticidal effect, Test Example 3 [1]: A (100)
- Insecticidal effect, Test Example 2 [2]: A (100)
- Insecticidal effect, Test Example 1 [3]: A (100)

SMILES: Cc1cc(Oc2ncc(C(F)(F)F)cc2Cl)ccc1NC(=O)c1ccccc1C(=O)NC(C)C [compound 79]
- Insecticidal effect, Test Example 3 [1]: D (79-50)
- Insecticidal effect, Test Example 2 [2]: A (100)
- Insecticidal effect, Test Example 1 [3]: A (100)

SMILES: CC(C)NC(=O)c1ccccc1C(=O)Nc1ccc(OC(F)F)cc1C(F)(F)F [compound 83]
- Insecticidal effect, Test Example 3 [1]: A (100)
- Insecticidal effect, Test Example 2 [2]: A (100)
- Insecticidal effect, Test Example 1 [3]: A (100)

SMILES: CC(C)NC(=O)c1c(Cl)cccc1C(=O)Nc1ccc(C(F)(C(F)(F)F)C(F)(F)F)cc1 [compound 89]
- Insecticidal effect, Test Example 3 [1]: A (100)
- Insecticidal effect, Test Example 2 [2]: B (99-90)
- Insecticidal effect, Test Example 1 [3]: A (100)

SMILES: CC(C)NC(=O)c1c(Cl)cccc1C(=O)Nc1ccc(C(F)(F)C(F)(F)C(F)(F)F)cc1 [compound 90]
- Insecticidal effect, Test Example 3 [1]: B (99-90)
- Insecticidal effect, Test Example 2 [2]: A (100)
- Insecticidal effect, Test Example 1 [3]: A (100)

SMILES: CC(C)NC(=O)c1c(Cl)cccc1C(=O)Nc1ccc(C(F)(F)C(F)(F)C(F)(F)C(F)(F)F)cc1 [compound 91]
- Insecticidal effect, Test Example 3 [1]: A (100)
- Insecticidal effect, Test Example 2 [2]: A (100)
- Insecticidal effect, Test Example 1 [3]: A (100)

SMILES: CC(C)NC(=O)c1c(Cl)cccc1C(=O)Nc1ccc(OC(F)(F)C(F)OC(F)(F)C(F)(F)C(F)(F)F)cc1 (stereo not drawn) [compound 93]
- Insecticidal effect, Test Example 3 [1]: A (100)
- Insecticidal effect, Test Example 2 [2]: A (100)
- Insecticidal effect, Test Example 1 [3]: A (100)

SMILES: CC(C)NC(=O)c1c(Cl)cccc1C(=O)Nc1cccc([S+]([O-])C(F)(F)F)c1 (stereo not drawn) [compound 100]
- Insecticidal effect, Test Example 3 [1]: A (100)
- Insecticidal effect, Test Example 2 [2]: A (100)
- Insecticidal effect, Test Example 1 [3]: A (100)

SMILES: CC(C)NC(=O)c1c(Cl)cccc1C(=O)Nc1ccc(SC(F)(F)C(F)F)cc1 [compound 102]
- Insecticidal effect, Test Example 3 [1]: A (100)
- Insecticidal effect, Test Example 2 [2]: D (79-50)
- Insecticidal effect, Test Example 1 [3]: A (100)

SMILES: CC(C)NC(=O)c1c(Cl)cccc1C(=O)Nc1ccc(SC(F)(F)C(F)(F)Br)cc1 [compound 103]
- Insecticidal effect, Test Example 3 [1]: A (100)
- Insecticidal effect, Test Example 2 [2]: C (89-80)
- Insecticidal effect, Test Example 1 [3]: A (100)

SMILES: CC(=O)c1ccc(NC(=O)c2cccc(Cl)c2C(=O)NC(C)C)cc1 [compound 109]
- Insecticidal effect, Test Example 3 [1]: C (89-80)
- Insecticidal effect, Test Example 2 [2]: A (100)
- Insecticidal effect, Test Example 1 [3]: A (100)

SMILES: CC(C)NC(=O)c1c(Cl)cccc1C(=O)Nc1cccc(Cl)c1Cl [compound 111]
- Insecticidal effect, Test Example 3 [1]: B (99-90)
- Insecticidal effect, Test Example 2 [2]: C (89-80)
- Insecticidal effect, Test Example 1 [3]: A (100)

SMILES: CC(C)NC(=O)c1c(Cl)cccc1C(=O)Nc1ccc(Cl)cc1Cl [compound 112]
- Insecticidal effect, Test Example 3 [1]: A (100)
- Insecticidal effect, Test Example 2 [2]: A (100)
- Insecticidal effect, Test Example 1 [3]: A (100)

SMILES: CC(C)NC(=O)c1c(Cl)cccc1C(=O)Nc1ccc(F)cc1F [compound 113]
- Insecticidal effect, Test Example 3 [1]: A (100)
- Insecticidal effect, Test Example 2 [2]: B (99-90)
- Insecticidal effect, Test Example 1 [3]: A (100)

SMILES: CC(C)NC(=O)c1c(Cl)cccc1C(=O)Nc1ccc(F)cc1Cl [compound 114]
- Insecticidal effect, Test Example 3 [1]: A (100)
- Insecticidal effect, Test Example 2 [2]: A (100)
- Insecticidal effect, Test Example 1 [3]: A (100)

SMILES: CC(C)NC(=O)c1c(Cl)cccc1C(=O)Nc1ccc(Cl)cc1F [compound 115]
- Insecticidal effect, Test Example 3 [1]: A (100)
- Insecticidal effect, Test Example 2 [2]: C (89-80)
- Insecticidal effect, Test Example 1 [3]: A (100)

SMILES: CC(C)NC(=O)c1c(Cl)cccc1C(=O)Nc1ccc(F)c(F)c1F [compound 116]
- Insecticidal effect, Test Example 3 [1]: A (100)
- Insecticidal effect, Test Example 2 [2]: D (79-50)
- Insecticidal effect, Test Example 1 [3]: A (100)

SMILES: Cc1cccc(NC(=O)c2cccc(Cl)c2C(=O)NC(C)C)c1C [compound 117]
- Insecticidal effect, Test Example 3 [1]: A (100)
- Insecticidal effect, Test Example 2 [2]: A (100)
- Insecticidal effect, Test Example 1 [3]: A (100)

SMILES: Cc1c(Cl)cccc1NC(=O)c1cccc(Cl)c1C(=O)NC(C)C [compound 118]
- Insecticidal effect, Test Example 3 [1]: A (100)
- Insecticidal effect, Test Example 2 [2]: A (100)
- Insecticidal effect, Test Example 1 [3]: A (100)

SMILES: Cc1cc(Cl)ccc1NC(=O)c1cccc(Cl)c1C(=O)NC(C)C [compound 119]
- Insecticidal effect, Test Example 3 [1]: A (100)
- Insecticidal effect, Test Example 2 [2]: A (100)
- Insecticidal effect, Test Example 1 [3]: A (100)

SMILES: Cc1ccc(Cl)cc1NC(=O)c1cccc(Cl)c1C(=O)NC(C)C [compound 120]
- Insecticidal effect, Test Example 3 [1]: A (100)
- Insecticidal effect, Test Example 2 [2]: D (79-50)
- Insecticidal effect, Test Example 1 [3]: A (100)

SMILES: Cc1cc(Br)ccc1NC(=O)c1cccc(Cl)c1C(=O)NC(C)C [compound 121]
- Insecticidal effect, Test Example 3 [1]: A (100)
- Insecticidal effect, Test Example 2 [2]: A (100)
- Insecticidal effect, Test Example 1 [3]: A (100)

SMILES: Cc1cc(I)ccc1NC(=O)c1cccc(Cl)c1C(=O)NC(C)C [compound 122]
- Insecticidal effect, Test Example 3 [1]: A (100)
- Insecticidal effect, Test Example 2 [2]: A (100)
- Insecticidal effect, Test Example 1 [3]: A (100)
